In patent US12185723B2, “Herbicidally active 3-phenylisoxazoline-5-carboxamides of s-containing cyclopentenylcarboxylic esters” (Bayer Aktiengesellschaft, priority 2019, dated 2025):

What was measured:
Assay type in all cases: in vivo
[1] = tested on: Viola tricolor; test: Post-emergence herbicidal action against VIOTR
Method: (§1) Post-Emergence Herbicidal Action Against Harmful Plants and Crop Plant Compatibility Seeds of monocotyledonous and dicotyledonous weeds and crop plants are placed in sandy loam in plastic or wood-fibre pots, covered with soil and cultivated in a greenhouse under controlled growth conditions. 2 to 3 weeks after sowing, the test plants are treated at the one-leaf stage. The compounds of the invention, formulated in the form of wettable powders (WP) or as emulsion concentrates (EC), are then sprayed onto the green parts of the plants as aqueous suspension or emulsion with addition of 0.5% additive at a water application rate of 600 l/ha (converted). After the test plants have been kept in the greenhouse under optimum growth conditions for about 3 weeks, the activity of the preparations is rated visually in comparison to untreated controls. For example, 100% activity=the plants have died, 0% activity=like control plants. [table]

[2] = tested on: Setaria viridis; test: Post-emergence herbicidal action against SETVI; details: visual rating about 3 weeks after treatment
In short: (§2)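 Visual % activity versus untreated controls, scored about 3 weeks after spraying (0% = like control, 100% = dead). Plants grown in sandy loam in a greenhouse were treated at the one-leaf stage, 2 to 3 weeks post-sowing, with WP or EC formulations plus 0.5% additive at 600 l/ha.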

[3] = tested on: Echinochloa crus-galli; test: Post-emergence herbicidal action against ECHCG; details: visual rating about 3 weeks after treatment
In short: as §2

[4] = tested on: Stellaria media; test: Post-emergence herbicidal action against STEME
Method: as §1

[5] = tested on: Amaranthus retroflexus; test: Post-emergence herbicidal action against AMARE
In short: as §2

[6] = tested on: Lolium rigidum; test: Post-emergence herbicidal action against LOLRI; details: visual rating about 3 weeks after treatment
In short: as §2

[7] = tested on: Matricaria inodora; test: Post-emergence herbicidal action against MATIN
In short: as §2

[8] = tested on: Pharbitis purpurea; test: Post-emergence herbicidal action against PHBPU
In short: as §2

[9] = tested on: DIGSA; test: Post-emergence herbicidal action against DIGSA; details: visual rating about 3 weeks after treatment
In short: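 Greenhouse-grown plants sprayed at one-leaf stage (2–3 weeks after sowing) with WP or EC formulations as aqueous suspension/emulsion plus 0.5% additive, 600 l/ha water. Activity rated visually about 3 weeks later versus untreated controls, 100% = plants dead, 0% = like controls.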

[10] = tested on: Veronica persica; test: Post-emergence herbicidal action against VERPE
In short: as §2

[11] = tested on: Alopecurus myosuroides; test: Post-emergence herbicidal action against ALOMY; details: visual rating about 3 weeks after treatment
In short: as §2

[12] = tested on: Hordeum murinum; test: Post-emergence herbicidal action against HORMU
Method: as §1

[13] = tested on: Avena fatua; test: Post-emergence herbicidal action against AVEFA; details: visual rating about 3 weeks after treatment
In short: as §2

[14] = tested on: Abutilon theophrasti; test: Post-emergence herbicidal action against ABUTH; details: 80 g a.i./ha, visual rating about 3 weeks after treatment
In short: as §2

[15] = tested on: Polygonum convolvulus; test: Post-emergence herbicidal action against POLCO
In short: as §2

[16] = 80 g a.i./ha, visual rating about 3 weeks after treatment

Row | SMILES | Herbicidal action against [%] VIOTR ([1]; 20 g a.i./ha) [%] | Herbicidal action against [%] SETVI ([2]; 20 g a.i./ha) [%] | Herbicidal action against [%] SETVI ([2]; 80 g a.i./ha) [%] | Herbicidal action against [%] ECHCG ([3]; 80 g a.i./ha) [%] | Herbicidal action against [%] STEME ([4]; 20 g a.i./ha) [%] | Herbicidal action against [%] STEME ([4]; 80 g a.i./ha) [%] | Herbicidal action against [%] AMARE [5, 16] [%] | Herbicidal action against [%] LOLRI ([6]; 20 g a.i./ha) [%] | Herbicidal action against [%] LOLRI ([6]; 80 g a.i./ha) [%] | Herbicidal action against [%] MATIN [7, 16] [%] | Herbicidal action against [%] PHBPU ([8]; 80 g a.i./ha) [%] | Herbicidal action against [%] DIGSA ([9]; 20 g a.i./ha) [%] | Herbicidal action against [%] DIGSA ([9]; 80 g a.i./ha) [%] | Herbicidal action against [%] VERPE ([10]; 20 g a.i./ha) [%] | Herbicidal action against [%] VERPE ([10]; 80 g a.i./ha) [%] | Herbicidal action against [%] ALOMY ([11]; 20 g a.i./ha) [%] | Herbicidal action against [%] ALOMY ([11]; 80 g a.i./ha) [%] | Herbicidal action against [%] HORMU ([12]; 80 g a.i./ha) [%] | Herbicidal action against [%] AVEFA ([13]; 20 g a.i./ha) [%] | Herbicidal action against [%] AVEFA ([13]; 80 g a.i./ha) [%] | further results
1 | CSCCOC(=O)C1C=CC(NC(=O)C2(C)CC(c3cc(F)cc(Cl)c3)=NO2)C1 (stereo not drawn) [Example I-32] | 80 | 80 | 80 | 80 | 80 | 90 | 80 | 90 | 90 | 80 | 80 | 80 | 80 | 80 | 90 | 90 | 100 | 80 | 90 | 90 | Herbicidal action against [%] ECHCG ([3]; 20 g a.i./ha): 80%; Herbicidal action against [%] MATIN ([7]; 20 g a.i./ha): 80%; Herbicidal action against [%] HORMU ([12]; 20 g a.i./ha): 80%
2 | COC1(C(=O)NC2C=CC(C(=O)OCCSC)C2)CC(c2cccc(F)c2)=NO1 (mixture of isomers) [Example I-36] | 80 |  |  |  | 80 | 80 |  |  |  | 80 | 80 |  |  | 80 | 80 |  | 80 |  |  | 80 | Herbicidal action against [%] ABUTH [14]: 80%; Herbicidal action against [%] PHBPU ([8]; 20 g a.i./ha): 80%
3 | C=CC1(C(=O)NC2C=CC(C(=O)OCCSC)C2)CC(c2cc(C)cc(F)c2)=NO1 (mixture of isomers) [Example I-47] | 90 | 80 | 80 | 80 | 90 | 90 | 100 | 80 | 80 | 80 |  | 80 | 90 | 80 | 80 | 90 | 90 | 80 | 80 | 90 | 
4 | CSCCOC(=O)C1C=CC(NC(=O)C2(C)CC(c3cccc(F)c3)=NO2)C1 (stereo not drawn) [Example I-34] | 90 | 80 | 80 | 80 | 90 | 90 |  | 100 | 100 |  | 90 | 80 | 80 | 90 | 90 | 100 | 100 | 80 | 90 | 90 | Herbicidal action against [%] VIOTR ([1]; 80 g a.i./ha): 80%; Herbicidal action against [%] ABUTH [14]: 80%; Herbicidal action against [%] ECHCG ([3]; 20 g a.i./ha): 80%; Herbicidal action against [%] POLCO ([15]; 20 g a.i./ha): 80%; Herbicidal action against [%] POLCO ([15]; 80 g a.i./ha): 90%; Herbicidal action against [%] PHBPU ([8]; 20 g a.i./ha): 90%; Herbicidal action against [%] HORMU ([12]; 20 g a.i./ha): 80%
5 | C=CC1(C(=O)NC2CC=C(C(=O)OCCSC)C2)CC(c2cc(F)cc(F)c2)=NO1 (stereo not drawn) [Example I-50] | 80 |  | 90 | 90 | 80 | 90 | 90 |  | 100 |  | 90 | 90 | 90 |  | 90 |  | 100 | 100 | 90 | 100 | Herbicidal action against [%] VIOTR ([1]; 80 g a.i./ha): 90%; Herbicidal action against [%] ABUTH [14]: 80%; Herbicidal action against [%] POLCO ([15]; 20 g a.i./ha): 80%; Herbicidal action against [%] POLCO ([15]; 80 g a.i./ha): 90%; Herbicidal action against [%] AMARE ([5]; 20 g a.i./ha): 90%; Herbicidal action against [%] PHBPU ([8]; 20 g a.i./ha): 90%; Herbicidal action against [%] HORMU ([12]; 20 g a.i./ha): 100%
6 | CSCCOC(=O)C1=CC(NC(=O)C2(C)CC(c3cc(F)cc(F)c3)=NO2)CC1 (stereo not drawn) [Example I-51] | 90 | 80 | 80 | 90 | 90 | 90 | 80 | 90 | 100 | 80 | 80 | 80 | 80 | 90 | 90 | 90 | 90 | 90 | 100 | 100 | Herbicidal action against [%] ECHCG ([3]; 20 g a.i./ha): 80%; Herbicidal action against [%] POLCO ([15]; 80 g a.i./ha): 80%; Herbicidal action against [%] HORMU ([12]; 20 g a.i./ha): 90%
